Among the data in paper PMC9683698 (Science Advances, 2022) are IC50 and stoichiometry N values, retold here.

pIC50: −log10 of the molar value.

Experiment [1] concerns the target T1, cPLA2 (cPLA2 group IVA, PLA2G4A) (Homo sapiens, UniProt P47712).
T1 construct: recombinant, expressed and purified from insect cells
T1 sequence (P47712 1-749): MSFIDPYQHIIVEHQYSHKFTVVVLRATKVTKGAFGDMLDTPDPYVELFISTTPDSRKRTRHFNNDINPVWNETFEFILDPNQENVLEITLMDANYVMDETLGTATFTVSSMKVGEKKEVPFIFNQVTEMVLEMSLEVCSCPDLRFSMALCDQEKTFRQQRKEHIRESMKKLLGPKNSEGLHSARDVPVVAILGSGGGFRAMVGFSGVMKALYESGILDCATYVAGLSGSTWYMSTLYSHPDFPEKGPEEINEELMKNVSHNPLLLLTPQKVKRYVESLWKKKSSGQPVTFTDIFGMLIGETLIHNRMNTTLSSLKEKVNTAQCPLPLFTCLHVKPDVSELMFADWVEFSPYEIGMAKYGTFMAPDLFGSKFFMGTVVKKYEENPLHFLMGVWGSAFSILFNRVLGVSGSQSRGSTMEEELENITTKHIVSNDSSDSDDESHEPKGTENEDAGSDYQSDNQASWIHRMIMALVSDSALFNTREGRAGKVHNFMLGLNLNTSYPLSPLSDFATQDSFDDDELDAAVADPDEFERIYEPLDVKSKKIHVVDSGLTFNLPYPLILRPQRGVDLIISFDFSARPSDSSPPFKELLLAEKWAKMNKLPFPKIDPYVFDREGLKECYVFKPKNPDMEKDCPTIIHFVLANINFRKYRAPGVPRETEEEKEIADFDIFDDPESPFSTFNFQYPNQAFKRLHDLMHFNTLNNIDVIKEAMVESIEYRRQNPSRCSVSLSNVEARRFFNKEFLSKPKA
Nature of the experiment: biochemical.

The target of experiment [2] is SARS-CoV S ectodomain (SARS-CoV) (UniProt P59594). Nature of the experiment: […], SEC buffer 20 mM tris pH 7.5, 100 mM NaCl; […].

`CCCCC/C=C\C/C=C\CCCCCCCC(=O)O` [linoleic acid] gave a pIC50 in experiment [1] of roughly 4.00.

As to “SARS-CoV S ectodomain (from UniProt P59594 14-1193) (domain or fragment)”, the stoichiometry N in experiment [2] worked out at 3.

The pIC50 is the IC50 on a negative log10 scale, so that one unit is a factor of ten. Low values mean a large IC50, high ones a small IC50. For orientation: stoichiometry N means a count of units in the complex or per binding partner.
